Laboratory results as given in ChEMBL document CHEMBL1926560, “Synthesis, biological evaluation and molecular docking studies of resveratrol derivatives possessing curcumin moiety as potent antitubulin agents” (Bioorg Med Chem, 2012).
In brackets after ≈: the same amount, converted by molar mass.

Key:
[1] = system: B16-F10; test: Antiproliferative activity against mouse B16F10 cells after 48 hrs by MTT assay; format: functional, cell-based; conditions: B16-F10, 48 h
[2] = Inhibition of bovine brain tubulin polymerization after 20 mins by turbidimetry; design: species or system Bos taurus
[3] = system: A549; test: Antiproliferative activity against human A549 cells after 48 hrs by MTT assay; format: functional, cell-based; conditions: A549, 48 h
[4] = system: HepG2; test: Antiproliferative activity against human HepG2 cells after 48 hrs by MTT assay; format: functional, cell-based; conditions: HepG2, 48 h
[5] = system: B16-F10; test: Ratio of resveratrol IC50 to compound IC50 for mouse B16F10 cells; format: functional
[6] = system: B16-F10; test: Cell cycle arrest in mouse B16F10 cells assessed as accumulation at Go/G1 phase at 1 ug/ml after 24 hrs using propidium iodide staining by flow cytometry (reference value: 68 %); format: functional
[7] = system: B16-F10; test: Cell cycle arrest in mouse B16F10 cells assessed as accumulation at S phase at 1 ug/ml after 24 hrs using propidium iodide staining by flow cytometry (reference value: 12 %); format: functional
[8] = system: B16-F10; test: Cell cycle arrest in mouse B16F10 cells assessed as accumulation at G2/M phase at 1 ug/ml after 24 hrs using propidium iodide staining by flow cytometry (reference value: 18 %); format: functional

Row | Compound | IC50 [1] [µg/mL] | IC50 [2] [µg/mL] | IC50 [3] [µg/mL] | IC50 [4] [µg/mL] | Ratio IC50 [5] | Activity [6] [%] | Activity [7] [%] | Activity [8] [%]
1 | COc1ccc(/C=C/c2cc(OC)cc(OC)c2/C=C/C(=O)/C=C/c2ccccc2)cc1 | 2.66 (≈ 6.24 µM) | 6.28 (≈ 14.7 µM) | 5.25 (≈ 12.3 µM) | 4.79 (≈ 11.2 µM) | – | – | – | –
2 | COc1ccc(/C=C/c2cc(OC)cc(OC)c2/C=C/C(=O)/C=C/c2ccccc2OC)cc1 | 2.13 (≈ 4.67 µM) | 5.99 (≈ 13.1 µM) | 6.49 (≈ 14.2 µM) | 5.82 (≈ 12.7 µM) | – | – | – | –
3 | COc1ccc(/C=C/c2cc(OC)cc(OC)c2/C=C/C(=O)/C=C/c2cccc(OC)c2)cc1 | 2.72 (≈ 5.96 µM) | 8.05 (≈ 17.6 µM) | 7.66 (≈ 16.8 µM) | 8.52 (≈ 18.7 µM) | – | – | – | –
4 | COc1ccc(/C=C/C(=O)/C=C/c2c(/C=C/c3ccc(OC)cc3)cc(OC)cc2OC)cc1 | 2.4 (≈ 5.26 µM) | 2.89 (≈ 6.33 µM) | 7.65 (≈ 16.8 µM) | 6.99 (≈ 15.3 µM) | – | – | – | –
5 | COc1ccc(/C=C/c2cc(OC)cc(OC)c2/C=C/C(=O)/C=C/c2cc(OC)cc(OC)c2)cc1 | 0.71 (≈ 1.46 µM) | 1.45 (≈ 2.98 µM) | 2.1 (≈ 4.32 µM) | 1.6 (≈ 3.29 µM) | 50 | 28 | 14 | 52
6 | COc1ccc(/C=C/c2cc(OC)cc(OC)c2/C=C/C(=O)/C=C/c2cc(OC)ccc2OC)cc1 | 1.3 (≈ 2.67 µM) | 2.11 (≈ 4.34 µM) | 4.09 (≈ 8.41 µM) | 2.78 (≈ 5.71 µM) | – | – | – | –
7 | COc1ccc(/C=C/c2cc(OC)cc(OC)c2/C=C/C(=O)/C=C/c2cccc(C)c2)cc1 | 1.67 (≈ 3.79 µM) | 3.08 (≈ 6.99 µM) | 4.08 (≈ 9.26 µM) | 4.58 (≈ 10.4 µM) | – | – | – | –
8 | COc1ccc(/C=C/c2cc(OC)cc(OC)c2/C=C/C(=O)/C=C/c2ccc(C)cc2)cc1 | 1.08 (≈ 2.45 µM) | 2.68 (≈ 6.08 µM) | 2.69 (≈ 6.11 µM) | 2.37 (≈ 5.38 µM) | – | – | – | –
9 | COc1ccc(/C=C/c2cc(OC)cc(OC)c2/C=C/C(=O)/C=C/c2ccc(C)c(C)c2)cc1 | 1.57 (≈ 3.45 µM) | 3.57 (≈ 7.85 µM) | 5.33 (≈ 11.7 µM) | 4.12 (≈ 9.06 µM) | – | – | – | –
10 | COc1ccc(/C=C/c2cc(OC)cc(OC)c2/C=C/C(=O)/C=C/c2ccccc2F)cc1 | 2.51 (≈ 5.65 µM) | – | 8.01 (≈ 18 µM) | 4.85 (≈ 10.9 µM) | – | – | – | –
11 | COc1ccc(/C=C/c2cc(OC)cc(OC)c2/C=C/C(=O)/C=C/c2ccccc2Cl)cc1 | 5.94 (≈ 12.9 µM) | – | 15.2 (≈ 33 µM) | 12.4 (≈ 27 µM) | – | – | – | –
12 | COc1ccc(/C=C/c2cc(OC)cc(OC)c2/C=C/C(=O)/C=C/c2ccccc2Br)cc1 | 3.09 (≈ 6.11 µM) | – | 9.37 (≈ 18.5 µM) | 10.2 (≈ 20.3 µM) | – | – | – | –
13 | COc1ccc(/C=C/c2cc(OC)cc(OC)c2/C=C/C(=O)/C=C/c2cccc(F)c2)cc1 | 1.67 (≈ 3.76 µM) | – | 4.47 (≈ 10.1 µM) | 2.65 (≈ 5.96 µM) | – | – | – | –
14 | COc1ccc(/C=C/c2cc(OC)cc(OC)c2/C=C/C(=O)/C=C/c2cccc(Cl)c2)cc1 | 2.99 (≈ 6.49 µM) | – | 8.23 (≈ 17.9 µM) | 6.94 (≈ 15.1 µM) | – | – | – | –
15 | COc1ccc(/C=C/c2cc(OC)cc(OC)c2/C=C/C(=O)/C=C/c2cccc(Br)c2)cc1 | 1.97 (≈ 3.9 µM) | – | 4.75 (≈ 9.4 µM) | 5.52 (≈ 10.9 µM) | – | – | – | –
16 | COc1ccc(/C=C/c2cc(OC)cc(OC)c2/C=C/C(=O)/C=C/c2ccc(F)cc2)cc1 | 1.81 (≈ 4.07 µM) | – | 5.83 (≈ 13.1 µM) | 4.35 (≈ 9.79 µM) | – | – | – | –
17 | COc1ccc(/C=C/c2cc(OC)cc(OC)c2/C=C/C(=O)/C=C/c2ccc(Cl)cc2)cc1 | 3.17 (≈ 6.88 µM) | – | 11.2 (≈ 24.2 µM) | 8.29 (≈ 18 µM) | – | – | – | –
18 | COc1ccc(/C=C/c2cc(OC)cc(OC)c2/C=C/C(=O)/C=C/c2ccc(Br)cc2)cc1 | 2.44 (≈ 4.83 µM) | – | 7.89 (≈ 15.6 µM) | 7.75 (≈ 15.3 µM) | – | – | – | –

Row | Compound | IC50 [1] [µg/mL] | IC50 [2] [µg/mL] | IC50 [3] [µg/mL] | IC50 [4] [µg/mL] | Ratio IC50 [5] | Activity [6] [%] | Activity [7] [%] | Activity [8] [%]
19 | COc1ccc(/C=C/c2cc(OC)cc(OC)c2/C=C/C(=O)/C=C/c2ccc(Cl)cc2Cl)cc1 | 2.11 (≈ 4.26 µM) | – | 5.05 (≈ 10.2 µM) | 4.67 (≈ 9.43 µM) | – | – | – | –
20 | COc1ccc(/C=C/c2cc(OC)cc(OC)c2/C=C/C(=O)/C=C/c2ccc(Cl)c(Cl)c2)cc1 | 2.73 (≈ 5.51 µM) | – | 6.99 (≈ 14.1 µM) | 9.49 (≈ 19.2 µM) | – | – | – | –
21 | COc1ccc(/C=C/c2cc(OC)cc(OC)c2/C=C/C(=O)/C=C/c2cc(Cl)cc(Cl)c2)cc1 | 2.08 (≈ 4.2 µM) | – | 6.18 (≈ 12.5 µM) | 3.28 (≈ 6.62 µM) | – | – | – | –
22 | COc1ccc(/C=C/c2cc(OC)cc(OC)c2/C=C/C(=O)/C=C/c2c(Cl)cccc2Cl)cc1 | 3.07 (≈ 6.2 µM) | – | 8.93 (≈ 18 µM) | 9.31 (≈ 18.8 µM) | – | – | – | –
23 | COc1ccc(/C=C/c2cc(OC)cc(OC)c2/C=C/C(=O)/C=C/c2ccc(F)c(Cl)c2)cc1 | 1.79 (≈ 3.74 µM) | – | 4.65 (≈ 9.71 µM) | 9.07 (≈ 18.9 µM) | – | – | – | –
24 | COc1ccc(/C=C/c2cc(OC)cc(OC)c2/C=C/C(=O)/C=C/c2ccc(F)c(F)c2)cc1 | 2.23 (≈ 4.82 µM) | – | 6.23 (≈ 13.5 µM) | 5.97 (≈ 12.9 µM) | – | – | – | –
25 | COc1ccc(/C=C/c2cc(OC)cc(OC)c2/C=C/C(=O)/C=C/c2cccc(F)c2C)cc1 | 1.8 (≈ 3.93 µM) | – | 3.98 (≈ 8.68 µM) | 2.74 (≈ 5.98 µM) | – | – | – | –
26 | COc1ccc(/C=C/c2cc(OC)cc(OC)c2/C=C/C(=O)/C=C/c2cc(F)ccc2C)cc1 | 0.75 (≈ 1.64 µM) | 1.81 (≈ 3.95 µM) | 2.32 (≈ 5.06 µM) | 1.96 (≈ 4.27 µM) | – | – | – | –
27 | COc1ccc(/C=C/c2cc(OC)cc(OC)c2/C=C/C(=O)/C=C/c2cccc(C(F)(F)F)c2)cc1 | 3.1 (≈ 6.27 µM) | – | 4.97 (≈ 10.1 µM) | 5.38 (≈ 10.9 µM) | – | – | – | –
28 | COc1ccc(/C=C/c2cc(OC)cc(OC)c2/C=C/C(=O)/C=C/c2cc(C(F)(F)F)ccc2Cl)cc1 | 1.85 (≈ 3.5 µM) | – | 5.96 (≈ 11.3 µM) | 6.79 (≈ 12.8 µM) | – | – | – | –
29 | COc1ccc(/C=C/c2cc(OC)cc(OC)c2/C=C/C(=O)/C=C/c2ccccc2[N+](=O)[O-])cc1 | 3.43 (≈ 7.27 µM) | – | 11.7 (≈ 24.7 µM) | 6.75 (≈ 14.3 µM) | – | – | – | –
30 | COc1ccc(/C=C/c2cc(OC)cc(OC)c2/C=C/C(=O)/C=C/c2cccc([N+](=O)[O-])c2)cc1 | 1.47 (≈ 3.12 µM) | – | 3.09 (≈ 6.55 µM) | 2.44 (≈ 5.17 µM) | – | – | – | –
31 | COc1ccc(/C=C/c2cc(OC)cc(OC)c2/C=C/C(=O)/C=C/c2ccc([N+](=O)[O-])cc2)cc1 | 2.35 (≈ 4.98 µM) | – | 6.69 (≈ 14.2 µM) | 6.95 (≈ 14.7 µM) | – | – | – | –
32 | COc1ccc(/C=C/c2cc(OC)cc(OC)c2/C=C/C(=O)/C=C/c2ccc(C(C)C)cc2)cc1 | 2.24 (≈ 4.78 µM) | – | 6.06 (≈ 12.9 µM) | 4.43 (≈ 9.45 µM) | – | – | – | –
33 | COc1ccc(/C=C/c2cc(OC)cc(OC)c2/C=C/C(=O)/C=C/c2ccccn2)cc1 | 3.12 (≈ 7.3 µM) | – | 9.16 (≈ 21.4 µM) | 9.17 (≈ 21.5 µM) | – | – | – | –
34 | COc1ccc(/C=C/c2cc(OC)cc(OC)c2/C=C/C(=O)/C=C/c2cccnc2)cc1 | 1.48 (≈ 3.46 µM) | – | 3.48 (≈ 8.14 µM) | 3.5 (≈ 8.19 µM) | – | – | – | –
35 | COc1ccc(/C=C/c2cc(OC)cc(OC)c2/C=C/C(C)=O)cc1 | 2.88 (≈ 8.51 µM) | – | 6.97 (≈ 20.6 µM) | 8.41 (≈ 24.9 µM) | – | – | – | –
36 | COc1cc2c(c(OC)c1OC)-c1ccc(OC)c(=O)cc1[C@@H](NC(C)=O)CC2 [COLCHICINE] | – | – | – | – | – | 2 | 3 | 85
